{"source": "patent US5284853A", "about": "“Angiotensin II receptor blocking 2,3,6 substituted quinazolinones” (American Cyanamid Company, priority 1993, dated 1994)", "key": {"Angiotensin II Receptor": {"target": "T1, Angiotensin II Receptor (Bos taurus, UniProt P25104)", "T1 construct": "The brownish tissue forming the adrenal cortex is scraped off and finely minced with scissors before homogenization; tissue local slaughter house (Maxwell-Cohen); host or cells: beef adrenal cortex, microsomal membranes (100,000×g pellet)", "T1 sequence (P25104 1-359)": "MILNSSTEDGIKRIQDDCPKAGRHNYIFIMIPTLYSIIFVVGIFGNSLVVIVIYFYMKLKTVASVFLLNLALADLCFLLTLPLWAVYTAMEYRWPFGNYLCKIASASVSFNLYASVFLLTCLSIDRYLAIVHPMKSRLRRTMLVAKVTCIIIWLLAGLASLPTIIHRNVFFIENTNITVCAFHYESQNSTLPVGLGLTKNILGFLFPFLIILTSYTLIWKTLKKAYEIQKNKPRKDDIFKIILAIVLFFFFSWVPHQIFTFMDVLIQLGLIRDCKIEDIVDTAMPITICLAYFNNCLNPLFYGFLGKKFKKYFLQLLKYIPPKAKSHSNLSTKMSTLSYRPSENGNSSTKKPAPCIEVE", "test": "Receptor binding assay: competition of [^125 I](Sar^1,Ile^8)AngII binding to beef adrenal cortex microsomal membranes", "conditions": "60 min, room temperature, pH 7.4"}, "[1]": {"tested_on": "Angiotensin II (AII) vasopressor response", "test": "AII Challenge: antagonism of the angiotensin II vasopressor response in conscious SHR", "format": "in vivo, Spontaneously hypertensive rats (Male okamoto-Aoki SHR)", "conditions": "15 mg/kg I.V.; for Average Change / Inhibition: n = 2; for Change / Control Before AII / Response After AII: per rat"}, "[2]": {"conditions": "AII 0.05 mcg/kg IV, 30 min post dose"}, "[3]": {"conditions": "AII 0.05 mcg/kg IV, 60 min post dose"}, "[4]": {"conditions": "AII 0.05 mcg/kg IV, 90 min post dose"}, "[5]": {"conditions": "AII 0.05 mcg/kg IV, 120 min post dose"}, "[6]": {"conditions": "AII 0.05 mcg/kg IV, 180 min post dose"}, "[7]": {"conditions": "AII 0.1 mcg/kg IV, 30 min post dose"}, "[8]": {"conditions": "AII 0.1 mcg/kg IV, 60 min post dose"}, "[9]": {"conditions": "AII 0.1 mcg/kg IV, 90 min post dose"}, "[10]": {"conditions": "AII 0.1 mcg/kg IV, 120 min post dose"}, "[11]": {"conditions": "AII 0.1 mcg/kg IV, 180 min post dose"}}, "note": "“And” between values parts separate entries of the source, which are not always exact repeats. Equal values may be shown once."}
{"smiles": "CCCCc1nc2ccc(C3CC(C(=O)O)=NO3)cc2c(=O)n1Cc1ccc(-c2ccccc2-c2nnn[nH]2)cc1", "note": "(stereo not drawn) [Example 28, 5-[2-butyl-3,4-dihydro-4-oxo-3-[[2'-(lH-tetrazol-5-yl)[1,1'-biphenyl]-4-yl]-methyl]-6-quinazolinyl]-4,5-dihydro-3-isoxazolecarboxylic acid]", "values": [{"measurement": "IC50", "setting": "Angiotensin II Receptor", "value": 0.6, "unit": "µM"}, {"measurement": "Average Change", "setting": "[1]; [2]", "value": 10, "unit": "mmhg"}, {"measurement": "Inhibition", "setting": "[1]; [2]", "value": 75, "unit": "%"}, {"measurement": "Change", "setting": "[1]; [2]", "value": 10, "unit": "mmhg"}, {"measurement": "Control Before AII", "setting": "[1]; [2]", "value": "185 mmhg and 167 mmhg"}, {"measurement": "Response After AII", "setting": "[1]; [2]", "value": "195 mmhg and 177 mmhg"}, {"measurement": "Average Change", "setting": "[1]; [3]", "value": 2.5, "unit": "mmhg"}, {"measurement": "Inhibition", "setting": "[1]; [3]", "value": 94, "unit": "%"}, {"measurement": "Change", "setting": "[1]; [3]", "value": "5 mmhg and 0 mmhg"}, {"measurement": "Control Before AII", "setting": "[1]; [3]", "value": "170 mmhg and 165 mmhg"}, {"measurement": "Response After AII", "setting": "[1]; [3]", "value": "175 mmhg and 165 mmhg"}, {"measurement": "Average Change", "setting": "[1]; [4]", "value": 10, "unit": "mmhg"}, {"measurement": "Inhibition", "setting": "[1]; [4]", "value": 75, "unit": "%"}, {"measurement": "Change", "setting": "[1]; [4]", "value": 10, "unit": "mmhg"}, {"measurement": "Control Before AII", "setting": "[1]; [4]", "value": 185, "unit": "mmhg"}, {"measurement": "Response After AII", "setting": "[1]; [4]", "value": 195, "unit": "mmhg"}, {"measurement": "Average Change", "setting": "[1]; [5]", "value": 16, "unit": "mmhg"}, {"measurement": "Inhibition", "setting": "[1]; [5]", "value": 60, "unit": "%"}, {"measurement": "Change", "setting": "[1]; [5]", "value": "22 mmhg and 10 mmhg"}, {"measurement": "Control Before AII", "setting": "[1]; [5]", "value": "163 mmhg and 165 mmhg"}, {"measurement": "Response After AII", "setting": "[1]; [5]", "value": "185 mmhg and 175 mmhg"}, {"measurement": "Average Change", "setting": "[1]; [6]", "value": 15.5, "unit": "mmhg"}, {"measurement": "Inhibition", "setting": "[1]; [6]", "value": 61, "unit": "%"}, {"measurement": "Change", "setting": "[1]; [6]", "value": "16 mmhg and 15 mmhg"}, {"measurement": "Control Before AII", "setting": "[1]; [6]", "value": 170, "unit": "mmhg"}, {"measurement": "Response After AII", "setting": "[1]; [6]", "value": "186 mmhg and 185 mmhg"}, {"measurement": "Average Change", "setting": "[1]; [7]", "value": 4.5, "unit": "mmhg"}, {"measurement": "Inhibition", "setting": "[1]; [7]", "value": 91, "unit": "%"}, {"measurement": "Change", "setting": "[1]; [7]", "value": "9 mmhg and 0 mmhg"}, {"measurement": "Control Before AII", "setting": "[1]; [7]", "value": "190 mmhg and 165 mmhg"}, {"measurement": "Response After AII", "setting": "[1]; [7]", "value": "199 mmhg and 165 mmhg"}, {"measurement": "Average Change", "setting": "[1]; [8]", "value": 14, "unit": "mmhg"}, {"measurement": "Inhibition", "setting": "[1]; [8]", "value": 73, "unit": "%"}, {"measurement": "Change", "setting": "[1]; [8]", "value": "15 mmhg and 13 mmhg"}, {"measurement": "Control Before AII", "setting": "[1]; [8]", "value": "175 mmhg and 157 mmhg"}, {"measurement": "Response After AII", "setting": "[1]; [8]", "value": "190 mmhg and 170 mmhg"}, {"measurement": "Average Change", "setting": "[1]; [9]", "value": 10, "unit": "mmhg"}, {"measurement": "Inhibition", "setting": "[1]; [9]", "value": 81, "unit": "%"}, {"measurement": "Change", "setting": "[1]; [9]", "value": 10, "unit": "mmhg"}, {"measurement": "Control Before AII", "setting": "[1]; [9]", "value": "185 mmhg and 175 mmhg"}, {"measurement": "Response After AII", "setting": "[1]; [9]", "value": "195 mmhg and 185 mmhg"}, {"measurement": "Average Change", "setting": "[1]; [10]", "value": 20, "unit": "mmhg"}, {"measurement": "Inhibition", "setting": "[1]; [10]", "value": 62, "unit": "%"}, {"measurement": "Change", "setting": "[1]; [10]", "value": 20, "unit": "mmhg"}, {"measurement": "Control Before AII", "setting": "[1]; [10]", "value": "180 mmhg and 165 mmhg"}, {"measurement": "Response After AII", "setting": "[1]; [10]", "value": "200 mmhg and 185 mmhg"}, {"measurement": "Average Change", "setting": "[1]; [11]", "value": 24.5, "unit": "mmhg"}, {"measurement": "Inhibition", "setting": "[1]; [11]", "value": 53, "unit": "%"}, {"measurement": "Change", "setting": "[1]; [11]", "value": "24 mmhg and 25 mmhg"}, {"measurement": "Control Before AII", "setting": "[1]; [11]", "value": "175 mmhg and 160 mmhg"}, {"measurement": "Response After AII", "setting": "[1]; [11]", "value": "199 mmhg and 185 mmhg"}]}
